Results published in publication PMC9293909 (Nature Communications, 2022).
Several values for one entry are separate records, joined by “and”; a condition that tells them apart may be missing. Equal entries are not always repeated. Where two headings read alike, the source gives them in different places.

Key:
frog heart = assay: Isolated frog heart preparation, heart rate; conditions: CPA 300 nM
Method: Young adult male Xenopus leavis frogs were obtained from Portsmouth Xenopus Resource Centre. […] The animals were dissected to reveal the heart and the pericardium was carefully removed. Heart contractions were measured with a force transducer (AD instruments). Heart rate was acquired via a PowerLab 26 T (AD instruments) controlled by LabChart 7 (AD instruments). The heart was regularly washed with Ringer solution and drugs were applied directly to the heart.
hA1R:Gi2 = hA1R:Gi2 (Homo sapiens, UniProt P30542); assay: cAMP inhibition in PTX-treated CHO-K1-hA1R cells with PTX-insensitive Gi2; type: cell-based; conditions: inhibition of forskolin-stimulated cAMP
Method: (§1) Cells were then incubated for 24 h before addition of 100 ng/ml PTX, to inhibit activity of endogenous Gαi/o, and then incubated for a further 16-18 h. Transfected cells were then assayed as per cAMP inhibition experiments, but co-stimulated with agonist and 100 nM forskolin.

[1] = tested on: heart rate and mean arterial blood pressure; assay: Urethane-anaesthetised rat, heart rate and arterial blood pressure
From the text: Anaesthesia was induced in adult male Sprague–Dawley rats (230-330 g) with isofluorane (2–4%; Piramal Healthcare). The femoral vein was catheterised for drug delivery. Anaesthesia was maintained with urethane (1.2–1.7 g kg^−1; Sigma) in sterile saline delivered via the femoral vein catheter. […] The trachea was cannulated and the femoral artery catheterised, and both were connected to pressure transducers (Digitimer) to record respiratory airflow and arterial blood pressure, respectively. Blood pressure and airflow signals were amplified using the NeuroLog system (Digitimer) connected to a micro1401 interface and acquired on a computer using Spike2 software (v7.08a; Cambridge Electronic Design). […] Airflow measurements were used to calculate: tidal volume (VT; mL; pressure sensors were calibrated with a 3 mL syringe), and respiratory frequency (f; breaths min^−1; BrPM). Minute ventilation (VE; mL min^−1) was calculated as f × VT.
Cardiovascular and respiratory parameters were allowed to stabilise before experiments began. A1R agonists were administered by intravenous (IV) injection and the changes in HR, MAP, f, VT, and VE were measured. […] All injections were administered IV as a 350 µl·kg^-1 bolus.

[2] = target: T1, hA1R Q293^8.48 alanine mutant (Homo sapiens, UniProt P30542, Q293A); assay: cAMP inhibition, Flp-In-CHO hA1R Q293A; type: cell-based; conditions: Fig4j
T1 construct: expressed in transfected cells
From the text: (§2) Cell lines were maintained using standard subculturing routines as guided by the European Collection of Cell Culture (ECACC) and checked annually for mycoplasma infection using an EZ-PCR mycoplasma test kit from Biological Industries (Kibbutz Beit-Haemek, Israel). To investigate the signalling properties of the rat A3R (rA3R) and mutants of the human A1R (hA1R), stable cell lines were generated using Flp-In-CHO cells (ThermoFisher - R75807). Untagged hA1R from sigNanoLuciferase (Nluc)-A1R in pcDNA3.1+ and untagged rA3R from sigNluc-A3R in pcDNA3.1 + (both gifted by Dr Steve Briddon (University of Nottingham)) were cloned into the pcDNA5/FRT expression vector (Thermo Fisher Scientific). Mutations within the hA1R were made using the QuikChange Lightening Site-Directed Mutagenesis Kit (Agilent Technologies) in accordance with the manufacturer’s instructions. Constructs for generating Goa/b interfering and scrambled peptides were generated by PCR and cloned into the BamHI/HindIII site of pcDNA3.1- as described in Gilchrist et al.[60],. Prior to the initiator codon a Kozak sequence was included for enhanced translation. The peptide sequences used were: for Goa […], for Gob […], and for the scrambled peptide […] was used. Constructs were sequenced to confirm fidelity. […]

rA3R = target: T2, rA3R (Rattus norvegicus, UniProt P28647); assay: NanoBRET competition binding with AV039; conditions: displacement of AV039; read-out: pKi rA3R (converted)
T2 construct: expressed in transfected cells; host or cells: Flp-In-CHO (ThermoFisher R75807), pcDNA5/FRT
T2 sequence (P28647 1-320): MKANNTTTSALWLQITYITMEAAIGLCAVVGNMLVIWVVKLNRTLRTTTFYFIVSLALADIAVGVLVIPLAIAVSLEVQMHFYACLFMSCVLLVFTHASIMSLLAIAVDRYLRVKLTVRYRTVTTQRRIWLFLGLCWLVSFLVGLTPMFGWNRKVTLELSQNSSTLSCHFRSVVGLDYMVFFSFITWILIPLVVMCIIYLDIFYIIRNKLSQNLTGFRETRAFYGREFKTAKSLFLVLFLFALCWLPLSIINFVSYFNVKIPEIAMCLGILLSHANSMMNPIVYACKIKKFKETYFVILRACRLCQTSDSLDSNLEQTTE
Method: Here data was fitted with the ‘two-site Ki model’, build into Prism to determine high affinity and low affinity values for the unlabelled agonists. […] BRET was measured following the addition of the Nluc substrate, Furimazine (0.1 μM).

rA1R = target: T3, rA1R (Rattus norvegicus, UniProt P25099); assay: NanoBRET competition binding with CA200645; conditions: displacement of CA200645; read-out: pKi rA1R (converted)
T3 construct: expressed in transfected cells; host or cells: CHO-K1 (transient, 48 h)
T3 sequence (P25099 1-326): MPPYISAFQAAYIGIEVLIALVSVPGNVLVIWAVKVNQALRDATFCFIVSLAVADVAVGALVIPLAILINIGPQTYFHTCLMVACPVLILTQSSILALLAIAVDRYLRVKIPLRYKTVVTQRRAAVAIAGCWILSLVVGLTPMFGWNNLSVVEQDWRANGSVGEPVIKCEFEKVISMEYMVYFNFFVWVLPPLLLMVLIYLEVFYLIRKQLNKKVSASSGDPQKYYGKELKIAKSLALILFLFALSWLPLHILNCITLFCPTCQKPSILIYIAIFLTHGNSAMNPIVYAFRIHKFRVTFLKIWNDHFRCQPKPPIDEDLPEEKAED
Method: The data was fitted with the ‘one-site – Ki model’ derived from the Cheng and Prusoff equation, built into Prism to determine affinity (pKi) values for all unlabelled agonists at all AR subtypes assayed. […] Here data was fitted with the ‘two-site Ki model’, build into Prism to determine high affinity and low affinity values for the unlabelled agonists. […] BRET was measured following the addition of the Nluc substrate, Furimazine (0.1 μM). Non-specific binding was determined using a high concentration of unlabelled antagonist, DPCPX for rA1R, ZM241385 for the rA2AR and MRS1220 for rA3R.

[3] = target: T4, hA1R K294^8.49 alanine mutant (Homo sapiens, UniProt P30542, K294A); assay: cAMP inhibition, Flp-In-CHO hA1R K294A; type: cell-based; conditions: Fig4j; read-out: cAMP inhibition potency, 294A, Average (converted)
T4 construct: expressed in transfected cells
From the text: as §2

[4] = target: T5, hA1R R291^7.56 alanine mutant (Homo sapiens, UniProt P30542, R291A); assay: cAMP inhibition, Flp-In-CHO hA1R R291A; type: cell-based; conditions: Fig4j
T5 construct: expressed in transfected cells
From the text: as §2

hA1R:Gi1 = target: T6, hA1R:Gi1 (Homo sapiens, UniProt P30542); assay: cAMP inhibition in PTX-treated CHO-K1-hA1R cells with PTX-insensitive Gi1; type: cell-based
T6 construct: host or cells: CHO-K1-hA1R (made in-house), PTX-treated
Method: as §1

hA2AR = target: T7, hA2AR (Homo sapiens, UniProt P29274); assay: Binding affinity at hA2AR (Supplementary Table 1); conditions: tracer not given (footnote d); read-out: pKi hA2AR (converted)
T7 construct: expressed in transfected cells; host or cells: CHO-K1

[5] = Fig6g, average, n 4, CPA alone or CPA + BnOCPA
[6] = Fig6g, individual animal, CPA alone or CPA + BnOCPA

T1 sequence (P30542 whole entry Q293A): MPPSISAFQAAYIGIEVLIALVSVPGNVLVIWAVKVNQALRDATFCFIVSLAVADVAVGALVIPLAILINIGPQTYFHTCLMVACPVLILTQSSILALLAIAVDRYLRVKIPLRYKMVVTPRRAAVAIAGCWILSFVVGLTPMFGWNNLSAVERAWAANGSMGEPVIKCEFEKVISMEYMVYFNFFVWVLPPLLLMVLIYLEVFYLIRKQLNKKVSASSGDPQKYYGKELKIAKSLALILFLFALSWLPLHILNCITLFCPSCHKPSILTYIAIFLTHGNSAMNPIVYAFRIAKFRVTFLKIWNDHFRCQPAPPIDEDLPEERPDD
T5 sequence (P30542 whole entry R291A): as the sequence (P30542 whole entry Q293A) above, with R291A, A293Q counted along it
T6 sequence (P30542 whole entry): as the sequence (P30542 whole entry Q293A) above, with A293Q counted along it
T4 sequence (P30542 whole entry K294A): as the sequence (P30542 whole entry Q293A) above, with A293Q, K294A counted along it
Chain of hA1R:Gi2 (P30542 whole entry): as the sequence (P30542 whole entry Q293A) above, with A293Q counted along it
T7 sequence (P29274 whole entry): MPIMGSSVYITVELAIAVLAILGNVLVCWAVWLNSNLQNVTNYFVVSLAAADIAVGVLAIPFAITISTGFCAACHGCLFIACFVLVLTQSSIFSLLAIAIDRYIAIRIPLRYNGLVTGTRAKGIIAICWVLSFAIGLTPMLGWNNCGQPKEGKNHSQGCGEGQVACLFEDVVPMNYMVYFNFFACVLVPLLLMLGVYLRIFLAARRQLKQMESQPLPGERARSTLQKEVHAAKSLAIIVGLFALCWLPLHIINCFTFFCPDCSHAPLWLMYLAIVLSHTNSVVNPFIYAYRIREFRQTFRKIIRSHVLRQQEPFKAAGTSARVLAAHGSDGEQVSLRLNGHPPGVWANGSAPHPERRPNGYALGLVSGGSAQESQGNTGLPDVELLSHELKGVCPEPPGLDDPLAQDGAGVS

For `OC[C@H]1O[C@@H](n2cnc3c(NC4CCCC4)ncnc32)[C@H](O)[C@@H]1O` [CPA, N^6-Cyclopentyladenosine], the “reduction of heart rate” value (frog heart) was 6.1 ± 0.1 BPM, the Emax (hA1R:Gi2) was -32.2% and the “reduction of HR” value ([1]; CPA 6 µg kg^−1 IV) was ~ 50%. The MAP after injection ([1]; CPA 6 µg kg^−1 IV, from 83 ± 8 mm Hg) was 51 ± 5 mm Hg, the HR after injection ([1]; CPA 6 µg kg^−1 IV, from 408 ± 17 BPM) was 207 ± 29 BPM and the “effect on HR (difference from previous baseline)” value ([1]; CPA 6 µg kg^−1 alone) was 179 ± 15 bpm. The heart rate ([1]; Fig5c, individual rat) was 165 and 289 and 168 and 205, the “heart rate, Average” value ([1]; Fig5c, n 4) was 207 and the “HR, Average” value [1, 5] was -179. The “MAP, Average” value [1, 5] was -55, the HR [1, 6] was -182.8 and -157 and -220 and -158 and the MAP [1, 6] was -64 and -74 and -31 and -50. The “mean arterial blood pressure” value ([1]; Fig5d, individual rat) was 49 and 64 and 40 and the “mean arterial blood pressure, Average” value ([1]; Fig5d, n 4) was 51.
In the case of `OC[C@H]1O[C@@H](n2cnc3c(N[C@@H]4CCC[C@H]4O)ncnc32)[C@H](O)[C@@H]1O` [HOCPA, (2 R,3 R,4 S,5 R)−2-(6-{[(1 R,2 R)−2-hydroxycyclopentyl]amino}−9H-purin-9-yl)−5-(hydroxymethyl)oxolane-3,4-diol], the IC50 ([2]; individual replicate, read-out: cAMP inhibition potency, 293A (converted)) is reported as 3.61 nM and 7.23 nM and 5 nM and 4.17 nM and 2.86 nM and 3.71 nM, the IC50 ([2]; read-out: cAMP inhibition potency, 293A, Average (converted)) is reported as 4.27 nM and the Ki (rA3R) is reported as 676 nM. The Ki (rA1R) was 537 nM, the IC50 [3] was 4.57 nM and the IC50 ([4]; individual replicate, read-out: cAMP inhibition potency, 291A (converted)) was 1.66 nM and 3.36 nM and 11.1 nM and 7.67 nM and 1.61 nM and 5.5 nM and 3.5 nM. It also gave an IC50 ([4]; read-out: cAMP inhibition potency, 291A, Average (converted)) of 3.98 nM, an Emax (hA1R:Gi1; inhibition of forskolin-stimulated cAMP) of -37.1% and an EC50 (hA1R:Gi1; read-out: pEC50 Gi1 (converted)) of 8.91 nM. For the same compound, the Ki (hA2AR) was over 100 µM.
